In experiment [1] the test system is Mammarenavirus lassaense. The experiment is described as follows: Thermal stabilization of LASV cap-ENDO assessed as increase in melting temperature at 25 uM in presence of MnCl2 by Sypro Orange dye based assay.
For experiment [2], the target named is RNA-directed RNA polymerase L (Andes orthohantavirus) (UniProt Q9E005). To be noted: Orthohantavirus andesense; dose 25.0 µM.
In experiment [3] the test system is Pichinde virus. The experiment can be described thus: Thermal stabilization of PICV cap-ENDO assessed as increase in melting temperature at 25 uM in presence of MnCl2 by Sypro Orange dye based assay.
For experiment [4], the system named is Mammarenavirus choriomeningitidis. The experiment can be described thus: Thermal stabilization of LCMV cap-ENDO assessed as increase in melting temperature at 25 uM in presence of MnCl2 by Sypro Orange dye based assay.
For experiment [5], the target named is RNA-directed RNA polymerase L (Bunyavirus La Crosse, UniProt A5HC98). On the set-up: species or system La Crosse virus.
Experiment [6] addresses RNA-directed RNA polymerase L (Bunyavirus La Crosse) (UniProt A5HC98). The note with it: La Crosse virus; dose 25.0 µM.
Experiment [7] has as its target RNA-directed RNA polymerase L (Andes orthohantavirus, UniProt Q9E005). Further details: species or system Orthohantavirus andesense.
Experiment [8] deals with RNA-directed RNA polymerase L (Toscana virus) (UniProt P37800). The note with it: dose 25.0 µM.
Experiment [9] deals with T1, RNA-directed RNA polymerase L (Toscana virus, UniProt P37800).
A short description of experiment [10]: Metal chelating activity assessed as compound-Mn(II) complex formation by measuring apparent formation constant (K) by UV-Vis spectrophotometric analysis. The experiment is classed as functional.
Experiment [11] in a line: Metal chelating activity assessed as compound-Mg(II) complex formation by measuring apparent formation constant (K) by UV-Vis spectrophotometric analysis. The experiment is classed as functional.
Experiment [12] deals with T1, RNA-directed RNA polymerase L. The source holds these as a separate data set.
Experiment [13] concerns the target RNA-directed RNA polymerase L (Toscana virus) (UniProt P37800).
The target is the same in experiment [14]. This is another data set of the same source.
Experiment [15] has the same target. The source holds these as a separate data set.

The structures appear in SMILES notation. Active and inactive are the calls of the source. No cut-off for these calls is given here.

Chain of RNA-directed RNA polymerase L (Andes orthohantavirus) (Q9E005 whole entry): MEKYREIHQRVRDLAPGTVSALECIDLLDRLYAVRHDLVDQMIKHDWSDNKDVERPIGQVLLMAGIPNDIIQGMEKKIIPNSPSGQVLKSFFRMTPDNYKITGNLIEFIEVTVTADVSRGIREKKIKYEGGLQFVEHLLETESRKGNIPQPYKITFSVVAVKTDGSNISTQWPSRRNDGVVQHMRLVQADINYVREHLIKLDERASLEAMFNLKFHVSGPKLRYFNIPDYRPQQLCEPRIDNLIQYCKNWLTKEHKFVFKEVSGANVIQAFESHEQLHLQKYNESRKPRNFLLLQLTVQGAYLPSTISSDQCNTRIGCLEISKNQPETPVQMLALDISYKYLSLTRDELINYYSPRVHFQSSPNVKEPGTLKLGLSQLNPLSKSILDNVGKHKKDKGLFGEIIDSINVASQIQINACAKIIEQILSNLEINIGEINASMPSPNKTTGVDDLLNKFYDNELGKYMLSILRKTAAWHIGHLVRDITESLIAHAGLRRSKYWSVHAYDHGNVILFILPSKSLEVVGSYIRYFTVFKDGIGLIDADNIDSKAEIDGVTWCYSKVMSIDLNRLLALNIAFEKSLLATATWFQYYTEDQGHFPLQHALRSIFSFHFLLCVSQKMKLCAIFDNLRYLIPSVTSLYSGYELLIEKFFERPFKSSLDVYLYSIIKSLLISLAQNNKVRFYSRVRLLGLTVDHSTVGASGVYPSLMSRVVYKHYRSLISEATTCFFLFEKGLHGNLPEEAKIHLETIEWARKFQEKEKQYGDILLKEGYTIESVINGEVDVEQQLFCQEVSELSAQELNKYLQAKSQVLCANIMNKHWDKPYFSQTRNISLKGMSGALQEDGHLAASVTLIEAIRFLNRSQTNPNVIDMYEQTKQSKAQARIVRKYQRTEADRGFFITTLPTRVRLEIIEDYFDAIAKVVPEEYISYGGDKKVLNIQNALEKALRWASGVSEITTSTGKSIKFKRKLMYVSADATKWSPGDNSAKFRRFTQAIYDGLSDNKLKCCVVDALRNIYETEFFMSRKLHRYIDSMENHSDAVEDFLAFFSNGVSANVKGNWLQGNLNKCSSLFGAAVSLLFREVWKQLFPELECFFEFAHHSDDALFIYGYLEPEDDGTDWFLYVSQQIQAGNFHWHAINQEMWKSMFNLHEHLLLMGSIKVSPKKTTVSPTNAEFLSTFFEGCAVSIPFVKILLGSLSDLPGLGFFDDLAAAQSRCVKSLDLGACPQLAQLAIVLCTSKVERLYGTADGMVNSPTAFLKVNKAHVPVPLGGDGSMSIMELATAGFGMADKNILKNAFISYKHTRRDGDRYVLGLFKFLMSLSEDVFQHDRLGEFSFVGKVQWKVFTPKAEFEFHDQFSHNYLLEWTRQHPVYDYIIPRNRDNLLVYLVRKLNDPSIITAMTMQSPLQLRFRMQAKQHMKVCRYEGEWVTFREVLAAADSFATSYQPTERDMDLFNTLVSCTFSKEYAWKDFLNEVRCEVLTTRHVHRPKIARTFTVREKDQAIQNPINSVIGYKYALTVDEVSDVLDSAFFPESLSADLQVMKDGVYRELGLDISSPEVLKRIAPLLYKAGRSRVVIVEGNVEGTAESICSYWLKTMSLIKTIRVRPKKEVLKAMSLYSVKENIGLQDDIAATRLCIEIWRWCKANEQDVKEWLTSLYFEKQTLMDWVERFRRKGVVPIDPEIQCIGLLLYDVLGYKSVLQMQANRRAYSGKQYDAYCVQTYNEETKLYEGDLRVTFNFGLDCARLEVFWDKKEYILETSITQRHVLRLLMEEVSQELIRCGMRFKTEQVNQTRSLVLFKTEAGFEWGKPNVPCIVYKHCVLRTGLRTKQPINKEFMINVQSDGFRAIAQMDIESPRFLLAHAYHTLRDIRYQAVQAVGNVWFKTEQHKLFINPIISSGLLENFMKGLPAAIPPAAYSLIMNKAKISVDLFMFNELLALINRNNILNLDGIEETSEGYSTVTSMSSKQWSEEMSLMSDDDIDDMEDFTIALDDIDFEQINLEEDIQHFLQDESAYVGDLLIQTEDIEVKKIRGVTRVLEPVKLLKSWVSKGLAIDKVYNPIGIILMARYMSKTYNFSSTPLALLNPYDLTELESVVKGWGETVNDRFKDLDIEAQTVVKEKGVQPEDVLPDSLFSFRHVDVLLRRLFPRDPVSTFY
Chain of RNA-directed RNA polymerase L (Andes orthohantavirus, UniProt Q9E005) (Q9E005 whole entry): as above

As to `O=C1c2c(ccc(O)c2O)CN1Cc1ccc2ccccc2c1`, the result in [1], in experiment [2], in experiment [3], in [4], in experiment [6] and in [8] was Active. In addition, the IC50 in [5] was 3.9 µM; in experiment [7] it was 1.9 µM; in experiment [9], 5.8 µM.
For `O=C1c2c(ccc(O)c2O)CN1Cc1ccc(F)c(Cl)c1`, the outcome in experiment [1], in experiment [2], in experiment [3], in experiment [4], in experiment [6] and in experiment [8] was inactive. For the same compound, the figures for the IC50 in [5], in [7] and in experiment [9] were 4.8 µM, 7.6 µM and 13.4 µM, respectively.
As to `O=C1c2c(ccc(O)c2O)CN1Cc1cc(O)c(O)c(O)c1`, the result in experiment [1], in experiment [2], in experiment [3], in experiment [4], in experiment [6] and in experiment [8] was Active. The IC50 amounted to 1.1 µM in experiment [5], 1.5 µM in experiment [7] and 0.9 µM in [9].
With `O=C1c2c(ccc(O)c2O)CN1Cc1ccc(O)cc1`, the result in experiment [1], in [2], in experiment [3], in experiment [4], in [6] and in [8] was Active. In addition, the log(activity) in [10] was 3.37; in experiment [11], 2.31. Also, the IC50 in [5] turned out to be 0.7 µM; in experiment [7], 1.6 µM; in experiment [9], 3.6 µM.
Turning to `Cc1ccc(CN2Cc3ccc(O)c(O)c3C2=O)cc1`, the outcome in experiment [1], in [2], in experiment [3], in experiment [4], in [6] and in experiment [8] was Active. The IC50 was determined as 3.4 µM in experiment [5], 6.4 µM in experiment [7] and 1.5 µM in experiment [9].
Regarding `O=C1c2c(ccc(O)c2O)CN1Cc1cccc2ccccc12`, the outcome in experiment [1], in [2], in experiment [3], in experiment [4], in experiment [6] and in experiment [8] was Active. Further, the IC50 in [5] came out at 11.2 µM; in experiment [7], 3.8 µM; in experiment [9], 7.8 µM.
For the compound `O=C1c2c(ccc(O)c2O)CN1Cc1ccc([N+](=O)[O-])cc1`, the result in [1], in [2], in [3], in experiment [4], in [6] and in [8] was Active. The figures for the IC50 in experiment [5], in [7] and in experiment [9] were 8 µM, 3.7 µM and 4.7 µM, respectively.
In the case of `O=C1c2c(ccc(O)c2O)CN1Cc1ccc(Cl)c(C(F)(F)F)c1`, the result in experiment [1], in [2], in experiment [3], in experiment [4], in experiment [6] and in experiment [8] was Active. Moreover, the half-maximal inhibitory concentration (IC50) amounted to 29.2 µM in experiment [5], 1.3 µM in experiment [7] and 7.3 µM in experiment [9].
On to `O=C1c2c(ccc(O)c2O)CN1Cc1ccc(O)c(O)c1`, for which the ΔTm in experiment [1] was below 1 °C; in experiment [2] it was above 1 °C; in experiment [3] it was below 1 °C; in [4], below 1 °C; in experiment [6], above 1 °C; in [8], above 1 °C. Besides, the Kd in experiment [12] turned out to be 28 µM. Also, the -TdeltaS in experiment [13] was 1.76 kcal/mol. In experiment [14], this compound registered a deltaH of -7.97 kcal/mol. Further, the deltaG in [15] was -6.22 kcal/mol. For the same compound, the IC50 in [5] was determined as 4 µM; in experiment [7], 0.5 µM; in experiment [9], 2.4 µM.
For `O=C1c2c(ccc(O)c2O)CN1Cc1ccccc1`, the result in experiment [1], in experiment [2], in experiment [3], in experiment [4], in experiment [6] and in experiment [8] was inactive. The values for the IC50 in experiment [5], in [7] and in experiment [9] were 9 µM, 1.1 µM and 3.3 µM, respectively.
In the case of `O=C1c2c(ccc(O)c2O)CN1Cc1ccc(F)cc1`, the result in experiment [1], in experiment [2], in [3], in [4], in experiment [6] and in [8] was Active. Also, the values for the IC50 in experiment [5], in [7] and in experiment [9] were 4 µM, 1.7 µM and 5.7 µM, respectively.
Turning to `O=C1c2c(ccc(O)c2O)CN1CCc1ccc(O)cc1`, the result in experiment [1], in experiment [2], in experiment [3], in [4], in experiment [6] and in experiment [8] was Active. Moreover, the values for the IC50 in experiment [5], in [7] and in experiment [9] were 6.1 µM, 1 µM and 2.8 µM, respectively.
